The values below come from US20200345776A1, “CELL” (AUTOLUS LIMITED, priority 2017, published 2020).

In one assay the test system is cancer cells. The settings on record: cited from earlier work.
Assay [1] deals with SKOV3 cells. Kind of assay: Co-culture of violacein-producing SupT1 cells with SKOV3 cells, live cell imaging. The settings on record: FIG. 12, co-culture. Format: cell-based, human. As to the method: The following day the indicated supT1 cells were added to the SKOV3 cells at density of 20,000 cells per well in a total volume of 200 ul cell culture medium. Cells were continuously monitored in a Incycute live cell imager and the number of viable SKOV3 cells enumerated every hour by counting the presence of red fluorescent nuclei.

For a further assay, the system named is MOLT-4 leukaemia. The note with it: cited from earlier work.
Assay [2] concerns NCI-H460 non-small-cell lung cancer. The settings on record: cited from earlier work.
Assay [3] deals with KM12 colon-cancer cell lines. The note with it: cited from earlier work.
Assay [4] has as its system SKOV3 cells. The note with it: positive control of cell killing/inhibition, 10 ug/ml; cited from earlier work.
The next assay deals with Adenosine A2AR receptor (Homo sapiens, UniProt P29274). The settings on record: cited from earlier work.

Molecules are shown by their SMILES.

Adenosine A2AR receptor, sequence (P29274 whole entry): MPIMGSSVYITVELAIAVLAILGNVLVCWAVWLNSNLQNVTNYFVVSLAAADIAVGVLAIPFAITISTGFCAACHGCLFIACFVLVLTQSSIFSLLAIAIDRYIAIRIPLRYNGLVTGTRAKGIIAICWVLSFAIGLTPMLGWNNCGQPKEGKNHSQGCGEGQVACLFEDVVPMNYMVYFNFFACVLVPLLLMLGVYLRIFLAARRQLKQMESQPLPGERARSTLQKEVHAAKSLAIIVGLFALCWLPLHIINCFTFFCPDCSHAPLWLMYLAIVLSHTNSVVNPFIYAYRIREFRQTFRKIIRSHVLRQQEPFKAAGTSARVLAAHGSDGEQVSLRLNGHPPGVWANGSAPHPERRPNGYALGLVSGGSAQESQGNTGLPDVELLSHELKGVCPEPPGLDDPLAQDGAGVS

Take `CC(C)=CCC/C(C)=C/CO` [Geraniol]: in the assay with cancer cells, the “Effect against cancer cells in vitro” value is listed as “anti-proliferative/pro-apoptotic effect”.
Consider `O=C1NC(c2c[nH]c3ccc(O)cc23)=C/C1=C1\C(=O)Nc2ccccc21` [Violacein], for which the “Toxicity of violacein produced by SupT1 cells to SKOV3 tumour cells” value in the assay on SKOV3 cells [1] is reported as “toxic”. For the same compound, in the assay with MOLT-4 leukaemia, the “Activity against MOLT-4 leukaemia” value is given as “has activity”. The “Activity against NCI-H460 non-small-cell lung cancer” value in assay [2] is reported as “has activity”. Moreover, the “Activity against KM12 colon-cancer cell lines” value in assay [3] is “has activity”.
As to `COc1cc([C@@H]2c3cc4c(cc3[C@@H](O[C@@H]3O[C@@H]5CO[C@@H](C)O[C@H]5[C@H](O)[C@H]3O)[C@H]3COC(=O)[C@H]23)OCO4)cc(OC)c1O` [Etoposide], in the assay with SKOV3 cells [4], the “Apoptosis of SKOV3 cells” value is “induces the apoptosis”.
As for `Cn1c(=O)c2c(ncn2C)n(C)c1=O` [Caffeine], the “Action on Adenosine A2AR receptor expressed on T cells” value on Adenosine A2AR receptor is “known antagonist”.
